In the METLIN SMRT retention time set (Domingo-Almenara et al. 2019):

test: gradient 5% acetonitrile 3 min, to 50% in 2 min, to 85% in 15 min, held 3 min, 100 µL/min; conditions: column: Zorbax Extend-C18 2.1 x 50 mm; eluents: water / acetonitrile, 0.1% formic acid
Procedure, shortened: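 Data were gathered over 3 months by HPLC coupled to a quadrupole time-of-flight mass spectrometer, operated in positive and negative ionization mode. Mixtures of ~100 pure standards ran on a Zorbax Extend-C18 column (2.1 × 50 mm, 1.8 μm) at 100 μL/min, with water and acetonitrile each containing 0.1% formic acid and dead and dwell volumes of 40 μL and 900 μL. Retention time was read from adduct peaks picked by computer and checked manually.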

Row | RP-LC retention time [s] | SMILES
1 | 807 | CCOC(=O)c1c(S(=O)(=O)N2CCC(C(=O)Nc3ccc4c(c3)OCO4)CC2)c(C)n(C)c1C
2 | 612 | Cc1ccc(Cl)cc1NC(=O)N1CCc2nc[nH]c2C1
3 | 623 | NS(=O)(=O)c1ccc(NC(=O)CN2C(=O)c3ccccc3C2=O)cc1
4 | 614 | CCNC(=O)c1cc(=O)[nH]c2c(Cl)cccc12
5 | 1060 | O=C(Nc1ccc2c(c1)OCO2)C1CCCN(c2ncc(-c3ccc(F)cc3)cn2)C1 (centres undefined)
6 | 822 | Cc1ccc(N2C=C(C(=O)N3CCOCC3)S(=O)(=O)c3ccc(F)cc32)cc1F
7 | 661 | COc1ccccc1NC(=O)N1CCN(Cc2nc3cccnc3n2-c2ccccc2)CC1
8 | 834 | Cc1ccc(-n2nc(N3CCN(C(=O)Nc4cc(F)ccc4F)CC3)ccc2=O)cc1
9 | 1120 | CCn1cc(-c2nc(C)c(C(=O)Nc3ccccc3OC)s2)c2cccnc21
10 | 775 | COC(=O)c1c(C)[nH]c(C(=O)N2CCC(CC(=O)N3CCN(c4ccccc4)CC3)CC2)c1C
11 | 743 | Cc1nnc(N2CCCC(C(=O)NCCc3ccco3)C2)c2nn(-c3ccc(Cl)cc3)c(C)c12 (centres undefined)
12 | 1250 | CCOc1ccc(C2Cn3nnc(-c4nc(-c5ccc(F)c(F)c5)no4)c3CO2)cc1 (centres undefined)
13 | 752 | O=C(CCC1CCN(S(=O)(=O)c2ccccc2F)CC1)NC1CC1
14 | 755 | O=S(=O)(Nc1ccc(Oc2nc3ccccc3n3cnnc23)cc1)c1cccc2nsnc12
15 | 1090 | CCn1c(=O)c2cc(C(=O)Nc3ccc(C(F)(F)F)cc3)nn2c2ccccc21
16 | 610 | CN1C(=O)[C@H]2CN(Cc3cc(F)cc(F)c3)C[C@H]2C1=O
17 | 1010 | COc1ccc(-c2nnc(-c3ccc(C)c(S(=O)(=O)NC4CCCC4)c3)o2)cc1OC
18 | 731 | CCC(C)NC(=O)N1C[C@@H]2CN(S(=O)(=O)c3ccc(F)cc3)C[C@H](C1)O2 (some centres undefined)
19 | 923 | Cc1ccccc1-c1nnc(CSc2nnc(NC(=O)Cc3ccc(F)cc3)s2)o1
20 | 740 | COc1ccc(OC)c(NC(=O)Cn2nc3c4ccc(Cl)cc4ncn3c2=O)c1
21 | 1090 | CCOc1ccccc1-c1nc(-c2cn(-c3ccc(F)cc3)nn2)no1
22 | 731 | CCC(=O)Nc1ccc(-n2cnc(C(=O)NC3CCCCC3)c2)nc1

Row | RP-LC retention time [s] | SMILES
23 | 790 | CCc1cc(OCC(=O)N2CCN(c3ccccn3)CC2)nc2c1c(C)nn2-c1ccc(C)cc1
24 | 924 | Cc1csc(-c2cc(S(=O)(=O)Nc3cc(Cl)ccc3F)cn2CC(=O)N2CCCC2)n1
25 | 641 | CCCc1nc2c(c(=O)n1CC(=O)NCc1cccs1)CCN(Cc1ccccc1)C2
26 | 897 | CCc1noc(NC(C)=O)c1-c1ccc(C)c(S(=O)(=O)Nc2ccc(C)c(C)c2)c1
27 | 527 | O=C(Cn1cnc2ccccc21)NCCOc1cccc2cccnc12
28 | 955 | COc1ccc(Cl)cc1C(=O)Nc1ccc2c(c1)N(C)C(=O)C(C)(C)CO2
29 | 691 | N#Cc1ccc(C(=O)N2CC(n3cc(COCC4CC4)nn3)C2)cc1
30 | 880 | Cc1c2cnn(CC(=O)NCc3ccc4c(c3)OCO4)c(=O)c2c(C)n1Cc1cccc(Cl)c1
31 | 546 | CCC(=O)N1CCc2c(sc3ncnc(N4CCN(C)CC4)c23)C1
32 | 914 | Cc1ccc(S(=O)(=O)NC(=O)NN2CCCCCC2)cc1
33 | 559 | CCn1c(=O)c(=O)n(CC(=O)NCCN2CCCC2)c2cccnc21
34 | 659 | CC1CC(C)CN(CCCNC(=O)CCCn2c(=O)c3cccn3c3ccccc32)C1 (centres undefined)
35 | 602 | CN1C(=O)[C@H]2CN(Cc3cc(F)ccc3F)C[C@H]2C1=O
36 | 739 | COC(=O)C1=C(NC(=O)c2ccc(N3C(=O)CCC3=O)cc2)CCS1
37 | 597 | CCOC(=O)c1[nH]c(C)c(CCC(=O)N2CCC(C(=O)NCc3cccnc3)CC2)c1C
38 | 1100 | Cc1ccc(-c2nc(C3CC(=O)N(c4ccc(F)cc4)C3)no2)cc1C (centres undefined)
39 | 544 | O=C(CC1CCNCC1)N1CCC(CCOc2cccnc2)CC1
40 | 644 | CC(=O)Nc1ccc(CCc2nc3ccc(C(=O)NCCc4c[nH]c5ccccc45)cc3[nH]2)cc1
41 | 785 | Cc1ccccc1S(=O)(=O)N1CCC(Cc2nc3cccnc3n2CC(C)C)C1 (centres undefined)
42 | 843 | Cc1ccccc1-c1nnc(CSc2nnc(NC(=O)C(C)C)s2)o1
43 | 930 | COC(=O)c1cccc(N2C=C(C#N)S(=O)(=O)c3ccc(Cl)cc32)c1
44 | 839 | O=C(Cn1nc(N2CCOCC2)c2ccccc2c1=O)Nc1ccc(F)cc1

Row | RP-LC retention time [s] | SMILES
45 | 1040 | O=C(Cn1cnc2c(sc3nc(-c4ccccc4)ccc32)c1=O)Nc1cc(F)ccc1F
46 | 726 | Cc1ccc(Nc2c(-c3ccc(O)cc3)nc3ccc(Br)cn23)cc1
47 | 1180 | CCOC(=O)C(=O)Nc1ccc(-c2nc(-c3cc(C)ccc3C)co2)cc1
48 | 953 | Cc1noc(-c2nc(Cc3ccc(F)cc3)no2)n1
49 | 900 | Cc1c(C(=O)C(=O)N(C)Cc2ccccc2)c2ccccc2n1C
50 | 614 | Cc1ccc(-c2nnc(N3CCC(C(=O)NCCN4CCOCC4)CC3)o2)cc1
51 | 670 | CCc1nccn1Cc1nc(-c2ccc(Cl)cc2)no1
52 | 1000 | CC(C)(Oc1ccc(Cl)cc1)C(=O)NCCS(=O)(=O)N1CCc2ccccc2C1
53 | 696 | Cc1cccc2cc3cccc(C)c3nc12
54 | 503 | Cc1nc(-c2cccnc2)nc2c1CCC(=O)N2CCN(C)C
55 | 912 | Cc1ccccc1CC(=O)Nc1ccc2c(c1)Sc1ncccc1C(=O)N2C(C)C
56 | 782 | COC1CCC12CCN(C(=O)Nc1ccccc1)CC2 (centres undefined)
57 | 814 | CC(C)c1ccc(-c2noc(N3CCC(C(=O)N4CCN(C5CCCCC5)CC4)CC3)n2)cc1
58 | 789 | CCN1C(=O)CCC2(C(=O)Nc3ccc(OC)cc3OC)CCCC=C12 (centres undefined)
59 | 727 | CCOC(=O)C1CCCN(C(=O)Cc2c(C(=O)O)c(C)cn2CC)C1 (centres undefined)
60 | 1070 | Nc1c(C(=O)NCC2CCCO2)c2nc3ccccc3nc2n1C1CCCC1 (centres undefined)
61 | 733 | Cc1cnc(C(=O)N2CCCC2c2nc(CCOCC3CC3)no2)cn1 (centres undefined)
62 | 628 | CCN1CCC(N(Cc2cccs2)C(=O)Nc2cc(OC)c(OC)c(OC)c2)CC1
63 | 641 | N#Cc1ccc(C(=O)N2CCC(c3cc(N)on3)CC2)cc1
64 | 891 | COc1ccc(C)cc1S(=O)(=O)N1CCCC(c2nnc(COc3ccccc3)o2)C1 (centres undefined)
65 | 1240 | CCOc1ccc(NC(=O)c2cc3sc(Cl)cc3n2CC)cc1
66 | 1120 | CC1CCC2(CC1)N=C(c1ccccc1)C(=O)N2CC(=O)Nc1ccc2c(c1)OCCO2 (centres undefined)

Row | RP-LC retention time [s] | SMILES
67 | 682 | Cc1[nH]c(C(=O)N2CCC(CC(=O)NCC3CCCO3)CC2)c(C)c1C(=O)OC(C)C (centres undefined)
68 | 987 | CCOc1ccc(C(=O)N2CCN(c3ccc(-c4nc(CC)cs4)cn3)CC2)cc1
69 | 1020 | Clc1ccccc1OCc1nn2c(CSc3ccccc3)nnc2s1
70 | 709 | COc1ccc(CCC(=O)NCC(C)(O)c2ccccc2)cc1 (centres undefined)
71 | 838 | CC(=O)Nc1cccc(C2OC(c3c(OC(C)=O)ccc4ccccc34)=NN2C(C)=O)c1 (centres undefined)
72 | 763 | CC(C)Cn1c(-c2cccc(C(=O)NC(C)C)c2)nc2cccnc21
73 | 590 | Cn1cnc(S(=O)(=O)N2CC(c3nc(-c4ccncc4)no3)C2)c1
74 | 756 | Cc1ccc2nc(-c3ccc(Cl)cc3)c(Nc3ccc4c(c3)OCO4)n2c1
75 | 1110 | Cc1ccc(CNC(=O)c2cc3sc(Cl)cc3n2C)cc1
76 | 652 | COCCNC(=O)Cn1c(=O)n(-c2ccc(F)cc2)c2ncccc21
77 | 635 | O=C(Cc1cn2cc(Br)ccc2n1)N1CCc2ccccc2C1
78 | 671 | CCCC(=O)Nc1ccc2c(c1)CN(C(=O)c1ccccc1)C(C(=O)N(C)C)C2 (centres undefined)
79 | 809 | COc1ccc(CNc2nc(NCc3ccc(OC)cc3)c3ncn(C(C)C)c3n2)cc1
80 | 680 | Cc1nn(C(C)C(=O)NCCCN2CCCCC2)c(=O)c2c1sc1ccccc12 (centres undefined)
81 | 607 | CC(C)c1nc2cccnc2n1CCN1CCN(C(=O)Nc2ccccc2Cl)CC1
82 | 958 | Cc1ccc(-n2ccc(=O)c(-c3nc(-c4ccccc4Cl)no3)n2)cc1
83 | 644 | Cc1noc(C)c1Cn1cccc(S(=O)(=O)N2CCCC2)c1=O
84 | 604 | CC(O)(CNS(=O)(=O)c1cccnc1)c1ccco1 (centres undefined)
85 | 586 | Cc1ccc2cc(CCC(=O)NCCc3cccnc3)c(=O)[nH]c2c1
86 | 625 | CCN1CCN(C(=O)CSCc2nc3cccnc3n2C2CCCCC2)CC1
87 | 627 | O=C(O)c1cccc(-c2ccc(N3CCCCCC3)nc2)c1
88 | 937 | COc1ccc(NC(=O)c2cn(CC3CCCO3)cc3c(=O)n(-c4ccccc4)nc2-3)cc1 (centres undefined)

Row | SMILES | RP-LC retention time [s]
89 | COc1cccc(S(=O)(=O)N2[C@H]3CC[C@@H]2c2cnc(C)nc2C3)c1 | 692
